Test results reported in US5192766A, “N-acryloylpiperazine derivatives, their preparation and their use as PAF antagonists” (Sankyo Company, Limited, priority 1989, dated 1993).

Tests used:
[1] = tested on: blood platelet (PAF-induced aggregation); assay: Inhibitory effect in vitro against PAF-induced blood platelet aggregation; format: cell-based; conditions: Oryctolagus cuniculus, 5 min; rabbit platelet rich plasma; l-C16:0 PAF final 10^-8 ~3×10^-8 M; 5 min observation
Experimental: Inhibitory effect in vitro against PAF-induced blood platelet aggregation
Blood samples were drawn from a rabbit and one part by volume of each sample was immediately mixed with 1/9 part of a 3.8% w/v aqueous solution of sodium citrate. The samples were centrifuged at 150×G at room temperature for 15 minutes to obtain a platelet rich plasma (PRP) fraction from the upper layer. The remains were further centrifuged at 1,000×G for 15 minutes to obtain a platelet poor plasma (PPP) fraction from the upper layer. The PRP and PPP fractions were mixed appropriately, to obtain a sample in which the final count of blood platelets was adjusted to be 6×10^5 per ul. According to the method reported by Born et al. [G. V. R. Born et al.: J. Physiol. 62, 67-68 (1962)], blood platelet aggregation was determined by an increase in light transmission measured using an aggregometer. 3 ul of a solution of the test compound in dimethyl sulfoxide were added to 272 ul of PRP, and, after 1 minute, 25 ul of a physiological saline solution containing l-c16:0 PAF (at a final concentration of 10^-8 ~3×10^-8 M) were added. […] At the end of this value and the value of PAF-induced aggregation which was observed when dimethyl sulfoxide only was used without the addition of any test compound. IC50 values were calculated from the dose-response curve.

[2] = biological target: T1, PAF-receptor (Oryctolagus cuniculus, UniProt G1TEI7); assay: Inhibitor effect on PAF-receptor binding; conditions: specific binding of ^3H-PAF; rabbit platelet PAF-receptor membrane fraction; read-out: Inhibition of receptor binding (IC50 M)
T1 construct: is regarded as a PAF-receptor membrane fraction; from tissue; host or cells: rabbit blood platelets (membrane fraction from sucrose density layers)
Text: Inhibitor effect on PAF-receptor binding
Blood samples were drawn from the heart of a rabbit. 1 part by volume of each sample was mixed immediately with 1/9 part of 0.77M solution of disodium ethylenediaminetetraacetate. After a similar procedure to that described in Experiment 2, a precipitated blood platelet sample was obtained. This blood platelet sample was washed, and, after repeated freezing and thawing for cellular breakdown, it was laid on top of double layers consisting of […] and 1.5M sucrose solutions. By centrifugation at 63,500×G, for 2 hours at 4° C., the fraction obtained from the interface between the 0.25M and 1.5M sucrose solutions was collected and is regarded as a PAF-receptor membrane fraction. A receptor binding experiment was conducted according to a method very similar to that reported by Hwang et al. [San-Bao Hwang et al.: J. Biol. Chem. 260, 15639-15645 (1985)]. The specific binding of ^3 H-PAF was measured using a Wattman GF/C filter. A test compound was dissolved in dimethyl sulfoxide and diluted 100 fold with a buffer solution containing 0.5% bovine serum albumin. Nine parts by weight of the solution, for a receptor binding experiment, was mixed with one part of the test compound solution prepared above. The percent inhibition of the specific binding was plotted for a log concentration of the test compound, and the 50% inhibitory concentration (IC50) was calculated from the linear line connecting all the plotted points.

[3] = tested on: PAF-induced hypotension; assay: Inhibition of PAF-induced hypotension; format: in vivo, Wistar-Imamichi rats; conditions: Rattus norvegicus, iv, 1 min; anesthetized rats; l-C16:0 PAF 10 ng/kg i.v.; test compound i.v. cumulatively, 1 min before PAF; read-out: Inhibitory effect ID50
Experimental: Inhibition of PAF-induced hypotension
The test animals used were Wistar-Imamichi rats, each weighing from 350 to 450 g, anesthetized with Inactin (90 mg/kd, intraperitoneally).
Blood pressure was continuously measured throughout the experiment through a cannula inserted into the femoral artery. Each drug sample to be tested was intravenously injected through a cannula inserted into the femoral vein.
At first, l-C16:0 PAF was injected intravenously in amounts of 10 ng/kg at each injection at intervals of 5 minutes until the degree of the hypotensive response became constant. Then, each drug sample to be treated was intravenously injected. After one minute, the same dose of PAF was administered again. The drug sample was cumulatively administered. From its inhibition rate against the PAF-induced hypotensive effect, the 50% inhibitive dose (ID50) was determined, and is regarded as an index of PAF-antagonist activity. For administration, the PAF was dissolved in physiological saline solution containing 0.25% w/v of bovine serum albumin (BSA). The compounds under test were dissolved in dimethylformamide for use.
CV-3988 is disclosed in U.S. Pat. No. 4,408,052, and is structurally related to PAF itself.
In this Table, the compounds of the invention are identified by the number of the foregoing Example in which they were prepared.

T1 sequence (G1TEI7 1-342): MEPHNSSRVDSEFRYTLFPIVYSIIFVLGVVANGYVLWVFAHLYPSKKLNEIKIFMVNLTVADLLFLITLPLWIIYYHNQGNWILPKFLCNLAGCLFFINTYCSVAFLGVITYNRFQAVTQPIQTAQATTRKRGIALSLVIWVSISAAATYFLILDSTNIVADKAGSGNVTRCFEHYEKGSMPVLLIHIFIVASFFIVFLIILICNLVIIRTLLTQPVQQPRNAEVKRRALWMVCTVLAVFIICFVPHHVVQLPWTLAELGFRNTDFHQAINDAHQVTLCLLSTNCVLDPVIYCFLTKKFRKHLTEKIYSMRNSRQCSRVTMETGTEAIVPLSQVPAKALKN

Compound | IC50 [1] | IC50 [2] | ED50 [3]
COc1ccc(/C(=C/C(=O)N2CCN(C(=O)c3cc(OC)c(OC)c(OC)c3)CC2)c2cccc(Cl)c2Cl)cc1 [Example 81, 1-[(Z)-3-(4-Methoxyphenyl)-3-(2,3-dichlorophenyl)acryloyl]-4-(3,4,5-trimethoxybenzoyl)piperazine] | 31 nM | 32 nM | –
COc1cccc(/C(=C/C(=O)N2CCN(C(=O)c3cc(OC)c(OC)c(OC)c3)CC2)c2cccc(Cl)c2)c1 [Example 43, 1-[(Z)-3-(3-Chlorophenyl)-3-(3-methoxyphenyl)acryloyl]-4-(3,4,5-trimethoxybenzoyl)piperazine] | – | 13 nM | 4.4 µg/kg
CCCCCCCCCCCCCCCCCCNC(=O)OCC(COP(=O)([O-])OCC[n+]1ccsc1)OC (racemic) [CV-3988, reference compound] | – | 1600 nM | 420 µg/kg
CCc1ccc(/C(=C/C(=O)N2CCN(C(=O)c3cc(OC)c(OC)c(OC)c3)CC2)c2cccc(Cl)c2)cc1 [Example 83, 1-[(Z)-3-(4-Ethylphenyl)-3-(3-chlorophenyl)acryloyl]-4-(3,4,5-trimethoxybenzoyl)piperazine] | – | 14 nM | 11 µg/kg
COc1ccc(/C(=C/C(=O)N2CCN(C(=O)c3cc(OC)c(OC)c(OC)c3)CC2)c2ccccc2Cl)cc1 [Example 42, 1-[(Z)-3-(2-chlorophenyl)-3-(4-methoxyphenyl)acryloyl]-4-(3,4,5-trimethoxybenzoyl)piperazine] | – | 20 nM | 5 µg/kg
COc1ccc(/C(=C/C(=O)N2CCN(C(=O)c3cc(OC)c(OC)c(OC)c3)CC2)c2cccc(C(F)(F)F)c2)cc1 [Example 75, 1-[(Z)-3-(4-Methoxyphenyl)-3-(3-trifluoromethylphenyl)acryloyl]-4-(3,4,5-trimethoxybenzoyl)piperazine] | 99 nM | 23 nM | 5.1 µg/kg
COc1cccc(/C(=C/C(=O)N2CCN(C(=O)c3cc(OC)c(OC)c(OC)c3)CC2)c2ccccc2Cl)c1 [Example 72, 1-[(Z)-3-(3-Methoxyphenyl)-3-(2-chlorophenyl)acryloyl]-4-(3,4,5-trimethoxybenzoyl)piperazine] | – | 26 nM | 9.7 µg/kg
COc1ccc(/C(=C/C(=O)N2CCN(C(=O)c3cc(OC)c(OC)c(OC)c3)CC2)c2ccc(Cl)c(Cl)c2)cc1 [Example 31, 1-[(Z)-3-(3,4-Dichlorophenyl)-3-(4-methoxyphenyl)acryloyl]-4-(3,4,5-trimethoxybenzoyl)piperazine] | 44 nM | 14 nM | 6.7 µg/kg
CCOc1ccc(/C(=C/C(=O)N2CCN(C(=O)c3cc(OC)c(OC)c(OC)c3)CC2)c2cc(Cl)cc(Cl)c2)cc1 [Example 85, 1-[(Z)-3-(4-Ethoxyphenyl)-3-(3,5-dichlorophenyl)acryloyl]-4-(3,4,5-trimethoxybenzoyl)piperazine] | – | 20 nM | 6.1 µg/kg
COc1ccc(/C(=C/C(=O)N2CCN(C(=O)c3cc(OC)c(OC)c(OC)c3)CC2)c2cccc(Cl)c2)cc1 [Example 45, 1-[(Z)-3-(3-Chlorophenyl)-3-(4-methoxyphenyl)acryloyl]-4-(3,4,5-trimethoxybenzoyl)piperazine] | 39 nM | 16 nM | 6.6 µg/kg
COc1ccc(/C(=C/C(=O)N2CCN(C(=O)c3cc(OC)c(OC)c(OC)c3)CC2)c2cc(Cl)cc(Cl)c2)cc1 [Example 77, 1-[(Z)-3-(4-Methoxyphenyl)-3-(3,5-dichlorophenyl)acryloyl]-4-(3,4,5-trimethoxybenzoyl)piperazine] | 26 nM | 14 nM | 3.7 µg/kg
COc1cc(C(=O)N2CCN(C(=O)C=C(c3cccc(C)c3)c3cccc(C)c3)CC2)cc(OC)c1OC [Example 56, 1-[3,3-Bis(3-Methylphenyl)acryloyl]-4-(3,4,5-trimethoxybenzoyl)piperazine] | – | 35 nM | 11 µg/kg
COc1ccc(/C(=C/C(=O)N2CCN(C(=O)c3cc(OC)c(OC)c(OC)c3)CC2)c2cc(F)cc(F)c2)cc1 [Example 87, 1-[(Z)-3-(4-Methoxyphenyl)-3-(3,5-difluorophenyl)acryloyl]-4-(3,4,5-trimethoxybenzoyl)piperazine] | 65 nM | 76 nM | 11 µg/kg
COc1cccc(/C(=C\C(=O)N2CCN(C(=O)c3cc(OC)c(OC)c(OC)c3)CC2)c2cccc(Cl)c2)c1 [Example 44, 1-[(E)-3-(3-Chlorophenyl)-3-(3-methoxyphenyl)acryloyl]-4-(3,4,5-trimethoxybenzoyl)piperazine] | – | 15 nM | 7.5 µg/kg
CCCOc1ccc(/C(=C/C(=O)N2CCN(C(=O)c3cc(OC)c(OC)c(OC)c3)CC2)c2ccc(Cl)c(Cl)c2)cc1 [Example 49, 1-[(Z)-3-(3,4-Dichlorophenyl)-3-(4-propoxyphenyl)acryloyl]-4-(3,4,5-trimethoxybenzoyl)piperazine] | 66 nM | 21 nM | 8 µg/kg
COc1ccc(/C(=C/C(=O)N2CCN(C(=O)c3cc(OC)c(OC)c(OC)c3)CC2)c2cccc(Br)c2)cc1 [Example 73, 1-[(Z)-3-(4-Methoxyphenyl)-3-(3-bromophenyl)acryloyl]-4-(3,4,5-trimethoxybenzoyl)piperazine] | 86 nM | – | 8.4 µg/kg
COc1ccc(/C(=C/C(=O)N2CCN(C(=O)c3cc(OC)c(OC)c(OC)c3)CC2)c2cc(C(F)(F)F)cc(C(F)(F)F)c2)cc1 [Example 84, 1-[(Z)-3-(4-Methoxyphenyl)-3-(3,5-di-trifluoromethylphenyl)acryloyl]-4-(3,4,5-trimethoxybenzoyl)piperazine] | – | 40 nM | 8.6 µg/kg
COc1cc(C(=O)N2CCN(C(=O)C=C(c3ccc(Cl)cc3)c3ccc(Cl)cc3)CC2)cc(OC)c1OC [Example 3, 1-[3,3-Bis(4-chlorophenyl)acryloyl]-4-(3,4,5-trimethoxybenzoyl)piperazine] | 220 nM | – | 48 µg/kg
COc1cc(C(=O)N2CCN(C(=O)C=C(c3cccc(Cl)c3)c3cccc(Cl)c3)CC2)cc(OC)c1OC [Example 41, 1-[3,3-Bis(3-chlorophenyl)acryloyl]-4-(3,4,5-trimethoxybenzoyl)piperazine] | 67 nM | 170 nM | 7.1 µg/kg
COc1cc(C(=O)N2CCN(C(=O)C=C(c3ccccc3)c3ccccc3)CC2)cc(OC)c1OC [Example 1, 1-(3,3-Diphenylacryloyl)-4-(3,4,5-trimethoxybenzoyl)piperazine] | 320 nM | 47 nM | 57 µg/kg
CCCOc1cccc(/C(=C/C(=O)N2CCN(C(=O)c3cc(OC)c(OC)c(OC)c3)CC2)c2ccccc2)c1 [Example 76, 1-[(E)-3-(3-Propoxyphenyl)-3-phenylacryloyl]-4-(3,4,5-trimethoxybenzoyl)piperazine] | 83 nM | – | 9.2 µg/kg
COc1ccc(C(=CC(=O)N2CCN(C(=O)c3cc(OC)c(OC)c(OC)c3)CC2)c2ccc(OC)c(OC)c2)cc1OC [Example 28, 1-[Bis(3,4-dimethoxyphenyl)acryloyl]-4-(3,4,5-trimethoxybenzoyl)piperazine] | 230 nM | – | 39 µg/kg
